According to US4909940A, “Extraction of process chemicals from labile biological mixtures with organic alcohols or with halogenated hydrocarbons” (priority 1987, dated 1990):
Read-outs that look alike come from different tables or passages of the source.

Assays:
AHF [1] = assay: AHF retention after extraction of AHF concentrate with halogenated hydrocarbons; type: biochemical, human; conditions: 5% (w/v) halogenated hydrocarbon, 30 minutes, ambient
Experimental: (§2) An AHF concentrate prepared from human plasma was treated with 0.3% TNBP and either 1% "TRITON X-45" or 1% "TWEEN 80" to inactivate virus. Following treatment, the solution was extracted one time with 5% (w/v) of a halogenated hydrocarbon by mixing for a period of 30 minutes at ambient temperature. The quantity of residual AHF, TNBP and detergent present in the aqueous solution was measured and compared with the unextracted control.

[2] = Removal of TRITON X-45 from AHF concentrate with halogenated hydrocarbons; conditions: 1% TRITON X-45; 5% (w/v) halogenated hydrocarbon, 30 minutes, ambient
Experimental: as §2

[3] = Removal of TNBP from AHF concentrate with halogenated hydrocarbons; conditions: 0.3% TNBP; 5% (w/v) halogenated hydrocarbon, 30 minutes, ambient
Experimental: as §2

[4] = Removal of TWEEN 80 from AHF concentrate with halogenated hydrocarbons; conditions: 1% TWEEN 80; 5% (w/v) halogenated hydrocarbon, 30 minutes, ambient
Experimental: as §2

AHF [5] = assay: AHF retention after extraction of AHF concentrate with alcohols; type: biochemical, human; conditions: 0.3% TNBP and 1% TRITON X-45; 10% (w/v) alcohol, 30 minutes, ambient
[6] = Removal of TRITON X-45 from AHF concentrate with alcohols; conditions: 0.3% TNBP and 1% TRITON X-45; 10% (w/v) alcohol, 30 minutes, ambient
[7] = Aqueous solubility of alcohols; conditions: water
[8] = Extraction of process chemicals from saline: TRITON X114; conditions: 1% TRITON X114 in saline
[9] = Extraction of process chemicals from saline: TNBP; conditions: 1% TNBP in saline
[10] = Extraction of process chemicals from saline: TRITON X100; conditions: 1% TRITON X100 in saline
[11] = Extraction of process chemicals from plasma: TNBP; conditions: 2% TNBP in plasma
From the text: (§1) The results are in general agreement with those observed extracting from saline.

[12] = Extraction of process chemicals from plasma: TRITON X45; conditions: 1% TRITON X45 in plasma
From the text: as §1

[13] = Extraction of process chemicals from saline: TWEEN 80; conditions: 1% TWEEN 80 in saline
[14] = Extraction of process chemicals from plasma: TWEEN 80; conditions: 1% TWEEN 80 in plasma
From the text: as §1

[15] = Extraction of process chemicals from plasma: TRITON X114; conditions: 1% TRITON X114 in plasma
From the text: as §1

[16] = Extraction of process chemicals from saline: Nonoxynol; conditions: 1% Nonoxynol in saline; 5% extractant
AHF [17] = assay: Recovery of AHF procoagulant activity following extraction; type: biochemical; conditions: for AHF recovery: AHF concentrate or plasma; for AHF % Recovery / AHF Activity After: 5% extractant
[18] = Extraction of process chemicals from plasma: TRITON X100; conditions: 1% TRITON X100 in plasma
From the text: as §1

[19] = Extraction of process chemicals from saline: TRITON X45; conditions: 1% TRITON X45 in saline
Factor IX = assay: Protein functional activity after extraction of plasma: Factor IX; type: biochemical; conditions: 10% extractant, 30 minutes, ambient
Experimental: (§3) Plasma was extracted with either 10% "FORANE" or 10% 2-octanol for 30 minutes at ambient temperature.

Antithrombin III = assay: Protein functional activity after extraction of plasma: Antithrombin III; type: biochemical; conditions: 10% extractant, 30 minutes, ambient
Experimental: as §3

AHF [20] = assay: Protein functional activity after extraction of plasma: AHF; type: biochemical; conditions: 10% extractant, 30 minutes, ambient
AHF [21] = assay: AHF activity retained after depyrogenation extraction; type: biochemical; conditions: 10% (v/v) extractant, 30 minutes, 24° C.
Experimental: AHF concentrate containing 6.4 ng/ml of endotoxin was extracted by mechanically shaking with 10% (v/v) 2-octanol or "FORANE" for 30 minutes at 24° C. After separation of the extractant by centrifugation, the pyrogen level was determined by the Limulus Amebocyte Lysate assay with a sensitivity of 0.025 ng/ml of endotoxin. The effect of these treatments is shown below in Table XI. […] More than 90% of the original AHF activity was retained following the extraction.

[22] = Removal of TNBP from cryoprecipitate; conditions: extracted two times, 10% FORANE or 10% FORANE and 5% heptanol; lyophilized
AHF [23] = assay: AHF recovery after extraction of cryoprecipitate; type: biochemical; conditions: extracted two times, 10% FORANE or 10% FORANE and 5% heptanol; sterile filtered, lyophilized
[24] = Removal of TRITON X-45 from cryoprecipitate; conditions: extracted two times, 10% FORANE or 10% FORANE and 5% heptanol; lyophilized
red blood cells = assay: Red blood cell retention on extraction with FORANE; design: species or system human; conditions: 10% FORANE
[25] = Merocyanine removal from saline on extraction with FORANE; conditions: 10% FORANE
[26] = water
[27] = system: Vesicular stomatitis virus; assay: microbe, parasite or virus in culture; type: cell-based

## FC(F)(Cl)C(F)(Cl)Cl [1,2,2-Trifluorotrichloroethane, 1,2,2-trifluorotrichloroethane]
AHF [1]
  % Retention AHF: 98%
[2]
  Percent Removal TRITON X-45: 8%
[3]
  Percent Removal TNBP: 93%
[4]
  Percent Removal TWEEN 80: 3%

## CCCCCCCCCCO [1-decanol]
AHF [5]
  AHF (% Retention): 100%
[6]
  TRITON X-45 (% Removal): 100%
[7]
  Aqueous Solubility: < 0.05 g %

## CCCCCCCCCO [1-nonanol]
AHF [5]
  AHF (% Retention): 100%
[6]
  TRITON X-45 (% Removal): 100%

## CCCCCCCCO [1-octanol]
AHF [5]
  AHF (% Retention): 96%
[6]
  TRITON X-45 (% Removal): 100%
[7]
  Aqueous Solubility: 0.05 g %

## CCCCCO [1-pentanol]
[8]; 5% extractant
  Percent Extraction: 91%
[9]; 5% extractant
  Percent Extraction: 99%
[10]; 5% extractant
  Percent Extraction: 92%
[11]; 5% extractant
  Percent Extraction: 98%
[12]; 5% extractant
  Percent Extraction: 80%
[13]; 5% extractant
  Percent Extraction: 28-42%
[14]; 5% extractant
  Percent Extraction: 7%
[15]; 5% extractant
  Percent Extraction: 75%
[16]
  Percent Extraction: 92%
AHF [17]
  AHF recovery: approximately 1%
AHF [17]; AHF concentrate
  AHF % Recovery: 1%
  AHF Activity After: 0.02 units/mL
AHF [17]; plasma
  AHF % Recovery: 1%
  AHF Activity After: 0.01 units/mL
[18]; 5% extractant
  Percent Extraction: 65%
[19]; 5% extractant
  Percent Extraction: 97%

## CCCCCCC(C)O (stereo not shown) [2-octanol]
Factor IX
  % Retention Factor IX: 99%
[8]; 5% extractant
  Percent Extraction: 94%
Antithrombin III
  % Retention Antithrombin III: 100%
[9]; 5% extractant
  Percent Extraction: 99%
[10]; 5% extractant
  Percent Extraction: 60%
[11]; 5% extractant
  Percent Extraction: 98%
[12]; 5% extractant
  Percent Extraction: 62%
[13]; 5% extractant
  Percent Extraction: 0-12%
[14]; 5% extractant
  Percent Extraction: 21%
AHF [5]
  AHF (% Retention): 93%
AHF [20]
  % Retention AHF: 95%
[15]; 5% extractant
  Percent Extraction: 33%
AHF [21]
  original AHF activity retained: More than 90%
[16]
  Percent Extraction: 49%
[6]
  TRITON X-45 (% Removal): 100%
AHF [17]
  AHF recovery: approximately 90%
AHF [17]; AHF concentrate
  AHF % Recovery: 89%
  AHF Activity After: 2.35 units/mL
AHF [17]; plasma
  AHF % Recovery: 91%
  AHF Activity After: 1.15 units/mL
[18]; 5% extractant
  Percent Extraction: 19%
[19]; 5% extractant
  Percent Extraction: 83-96%
[7]
  Aqueous Solubility: 0.05 g %

## FC(F)OC(F)(F)C(F)Cl (stereo not shown) [Ethrane, 2-chloro-1,1,2-trifluoroethyl difluoromethyl ether]
AHF [1]
  % Retention AHF: 100%
[2]
  Percent Removal TRITON X-45: 99%
[3]
  Percent Removal TNBP: 99%

## FC(F)OC(Cl)C(F)(F)F (stereo not shown) [FORANE, 1-chloro-2,2,2-trifluoroethyl difluoromethyl ether]
Factor IX
  % Retention Factor IX: 99%
[8]; 5% extractant
  Percent Extraction: 99%
[8]; 20% extractant
  Percent Extraction: 99%
Antithrombin III
  % Retention Antithrombin III: 100%
[22]
  Percent Removal TNBP: 99.88%
AHF [1]
  % Retention AHF: 100%
[9]; 5% extractant
  Percent Extraction: 99%
[9]; 20% extractant
  Percent Extraction: 99%
[10]; 5% extractant
  Percent Extraction: 99%
[10]; 20% extractant
  Percent Extraction: 99%
[11]; 5% extractant
  Percent Extraction: 94%
[11]; 20% extractant
  Percent Extraction: 96%
[2]
  Percent Removal TRITON X-45: 99%
[12]; 5% extractant
  Percent Extraction: 91%
[12]; 20% extractant
  Percent Extraction: 99%
[3]
  Percent Removal TNBP: 99%
[13]; 5% extractant
  Percent Extraction: 85%
[13]; 20% extractant
  Percent Extraction: 87%
[14]; 20% extractant
  Percent Extraction: 66%
AHF [23]
  AHF recovery: 95%
AHF [20]
  % Retention AHF: 98%
[4]
  Percent Removal TWEEN 80: 87%
[15]; 5% extractant
  Percent Extraction: 96%
[15]; 20% extractant
  Percent Extraction: 96%
[24]
  Percent Removal TRITON X-45: 96%
AHF [21]
  original AHF activity retained: More than 90%
Red blood cells
  Red Blood Cell Retention: 97%
AHF [17]
  AHF recovery: ~100%
AHF [17]; AHF concentrate
  AHF % Recovery: 102%
  AHF Activity After: 2.69 units/mL
[18]; 5% extractant
  Percent Extraction: 95%
[18]; 20% extractant
  Percent Extraction: 96%
[19]; 5% extractant
  Percent Extraction: 99%
[19]; 20% extractant
  Percent Extraction: 99%
[25]
  Merocyanine % Removal: 83%

## FC1(F)C(F)(F)C(F)(F)C2(F)C(F)(F)C(F)(F)C(F)(F)C(F)(F)C2(F)C1(F)F (stereo not shown) [Perfluorodecalin]
AHF [1]
  % Retention AHF: 107%
[2]
  Percent Removal TRITON X-45: 0%
[3]
  Percent Removal TNBP: 14%
[4]
  Percent Removal TWEEN 80: 0%

## FC(F)(F)C(F)(F)C(F)(F)C(F)(F)C(F)(F)C(F)(F)F [Perfluorohexane]
AHF [1]
  % Retention AHF: 98%
[2]
  Percent Removal TRITON X-45: 0%
[3]
  Percent Removal TNBP: 27%
[4]
  Percent Removal TWEEN 80: 0%

## FC(F)(F)C(F)(F)C(F)(F)C(F)(F)N(C(F)(F)C(F)(F)C(F)(F)C(F)(F)F)C(F)(F)C(F)(F)C(F)(F)C(F)(F)F [Perfluorotributyl amine]
AHF [1]
  % Retention AHF: 112%
[2]
  Percent Removal TRITON X-45: 0%
[3]
  Percent Removal TNBP: 31%
[4]
  Percent Removal TWEEN 80: 3%

## CCCCCO [amyl alcohol]
[26]
  Aqueous Solubility: 2.3 g %
AHF [5]
  AHF (% Retention): 1%
[6]
  TRITON X-45 (% Removal): 100%

## CCCCCCCO [heptanol]
[26]
  Aqueous Solubility: 0.2 g %
AHF [5]
  AHF (% Retention): 98%
[6]
  TRITON X-45 (% Removal): 100%

## CCCCCCO [hexanol]
AHF [5]
  AHF (% Retention): 63%
[6]
  TRITON X-45 (% Removal): 100%

## CC(C)CCO [isoamyl alcohol]
AHF [5]
  AHF (% Retention): 1%
[6]
  TRITON X-45 (% Removal): 100%
[7]
  Aqueous Solubility: 2.0 g %

## CCCCN1C(=O)C(=CC=CC=C2Oc3ccccc3N2CCCS(=O)(=O)O)C(=O)N(CCCC)C1=S [merocyanine 540]
[27]
  Final Virus Titer: < -0.5
  Virus titer, Control (no light): 3.7
[27]; Vesicular stomatitis virus, 1 h, read-out: Total Virus Kill
  log reduction at 40 µg/mL: > 4.2

## CCCCCCCCCCCO [undecanol]
AHF [5]
  AHF (% Retention): 94%
[6]
  TRITON X-45 (% Removal): 100%
[7]
  Aqueous Solubility: < 0.05 g %
